This note sets out measurements from patent US9748593B2, “Polymer electrolyte composition, and polymer electrolyte membrane, membrane electrode complex and solid polymer-type fuel cell each produced using same” (TORAY INDUSTRIES, INC., priority 2012, dated 2017).

By solubility is commonly meant the dissolved amount per volume that the medium holds. A low value points to little dissolved substance.

This series in a line: physchem. Particulars: 60 °C, thermodynamic from solid. The method, then:
• (6) Solubility of Nitrogen-Containing Additive
After 100 mg of the nitrogen-containing additive and 1 L of a solvent were mixed, the resulting mixture was stirred at a rotational speed of 200 rpm at 60° C. for 1 hour using a mixing machine to dissolve the nitrogen-containing additive.

Converted amounts (≈) assume the structure as drawn.

For `c1cnc2c(c1)ccc1cccnc12` [1,10-phenanthroline, reference compound], the solubility at 1 h runs as follows: (aqueous buffer) at least 100 µg/mL; (water) at least 100 µg/mL.
In the case of `Nc1cc2cccnc2c2ncccc12` [5-amino-1,10-phenanthroline, reference compound], the solubility at 1 h was at least 100 µg/mL (aqueous buffer) and at least 100 µg/mL (water).
In the case of `c1cc(-c2ccc3ccc4cccnc4c3n2)cc(-c2ccc3ccc4cccnc4c3n2)c1` [ADT-1], the solubility at 1 h is 5 µg/mL (≈ 11.5 µM) (aqueous buffer) and under 0.1 µg/mL (water).
As for `c1ccc(-c2ccc3ccc4ccc(-c5cccc(-c6ccc7ccc8ccc(-c9ccccc9)nc8c7n6)c5)nc4c3n2)cc1` [ADT-2], the solubility at 1 h reads like this: (aqueous buffer) 3.4 µg/mL (≈ 5.8 µM); (water) under 0.1 µg/mL.
The matching figures for `c1cnc2c(c1)ccc1ccc(-c3ccc(-c4ccc5ccc6cccnc6c5n4)cc3)nc12` [ADT-3]: 4.2 µg/mL (≈ 9.67 µM) and under 0.1 µg/mL.
The matching figures for `c1ccc2c(-c3ccc4ccc5ccc(-c6ccc(-c7ccc8ccc9ccc(-c%10cccc%11ccccc%10%11)nc9c8n7)cc6)nc5c4n3)cccc2c1` [ADT-4]: 1.9 µg/mL (≈ 2.77 µM) and under 0.1 µg/mL.
As to `c1cnc2c(c1)ccc1ccc(-c3ccc4ccc(-c5ccc6ccc7cccnc7c6n5)cc4c3)nc12` [ADT-5], the solubility at 1 h is 4 µg/mL (≈ 8.25 µM) (aqueous buffer) and under 0.1 µg/mL (water).
For the compound `c1ccc(-c2ccc3ccc4ccc(-c5ccc6ccc(-c7ccc8ccc9ccc(-c%10ccccc%10)nc9c8n7)cc6c5)nc4c3n2)cc1` [ADT-6], the solubility at 1 h is, setting by setting: (aqueous buffer) 2.6 µg/mL (≈ 4.08 µM); (water) under 0.1 µg/mL.
The matching figures for `c1cnc2c(c1)ccc1ccc(-c3cccc4c(-c5ccc6ccc7cccnc7c6n5)cccc34)nc12` [ADT-7]: 4.5 µg/mL (≈ 9.29 µM) and under 0.1 µg/mL.
On to `c1ccc(-c2ccc(-c3ccc4ccc5cccnc5c4n3)cc2)c(-c2ccc(-c3ccc4ccc5cccnc5c4n3)cc2)c1` [ADT-8], for which the solubility at 1 h was 3.3 µg/mL (≈ 5.62 µM) (aqueous buffer) and under 0.1 µg/mL (water).
The matching figures for `c1cc(-c2ccc(-c3ccc4ccc5cccnc5c4n3)cc2)cc(-c2ccc(-c3ccc4ccc5cccnc5c4n3)cc2)c1` [ADT-9]: 3 µg/mL (≈ 5.11 µM) and under 0.1 µg/mL.
The matching figures for `c1cc(-c2cccc(-c3ccc4ccc5cccnc5c4n3)c2)cc(-c2cccc(-c3ccc4ccc5cccnc5c4n3)c2)c1` [ADT-10]: 3.6 µg/mL (≈ 6.14 µM) and under 0.1 µg/mL.
The matching figures for `CC(C)(C)c1ccc(-c2ccc3ccc4ccc(-c5cccc(-c6ccc7ccc8ccc(-c9ccc(C(C)(C)C)cc9)nc8c7n6)c5)nc4c3n2)cc1` [ADT-11]: 2.9 µg/mL (≈ 4.15 µM) and under 0.1 µg/mL.
`Cc1cc(C)cc(-c2ccc3ccc4ccc(-c5cccc(-c6ccc7ccc8ccc(-c9cc(C)cc(C)c9)nc8c7n6)c5)nc4c3n2)c1` [ADT-12]: the solubility at 1 h runs as follows: (aqueous buffer) 3.1 µg/mL (≈ 4.82 µM); (water) under 0.1 µg/mL.
The matching figures for `Cc1ccc(-c2ccc3ccc4ccc(-c5cccc(-c6ccc7ccc8ccc(-c9ccc(C)cc9)nc8c7n6)c5)nc4c3n2)cc1` [ADT-13]: 3.2 µg/mL (≈ 5.21 µM) and under 0.1 µg/mL.
In the case of `c1cc(-c2ccc3ccc4ccc(-c5cccc6ccccc56)nc4c3n2)cc(-c2ccc3ccc4ccc(-c5cccc6ccccc56)nc4c3n2)c1` [ADT-14], the solubility at 1 h was 2.8 µg/mL (≈ 4.08 µM) (aqueous buffer) and under 0.1 µg/mL (water).
For the compound `c1ccc(-c2ccc3ccc4ccc(-c5ccc(-c6ccc7ccc8ccc(-c9ccccc9)nc8c7n6)cc5)nc4c3n2)cc1` [ADT-15], the solubility at 1 h by setting is: (aqueous buffer) 2.5 µg/mL (≈ 4.26 µM); (water) under 0.1 µg/mL.
The matching figures for `CC(C)(C)c1ccc(-c2ccc3ccc4ccc(-c5ccc(-c6ccc7ccc8ccc(-c9ccc(C(C)(C)C)cc9)nc8c7n6)cc5)nc4c3n2)cc1` [ADT-16]: 2.8 µg/mL (≈ 4.01 µM) and under 0.1 µg/mL.
`c1cc(-c2cccc(-c3ccc4ccc5cccnc5c4n3)c2)cc(-c2ccc3ccc4cccnc4c3n2)c1` [ADT-17]: the solubility at 1 h (aqueous buffer) stood at 4.6 µg/mL (≈ 9.01 µM) and the solubility at 1 h (water) is under 0.1 µg/mL.
`c1cnc2c(c1)ccc1ccc(-c3cc(-c4ccc5ccc6cccnc6c5n4)cc(-c4ccc5ccc6cccnc6c5n4)c3)nc12` [ADT-18]: the solubility at 1 h is, setting by setting: (aqueous buffer) 1.3 µg/mL (≈ 2.12 µM); (water) under 0.1 µg/mL.
For `c1cnc2c(c1)ccc1ccc(-c3ccc(C(c4ccc(-c5ccc6ccc7cccnc7c6n5)cc4)(c4ccc(-c5ccc6ccc7cccnc7c6n5)cc4)c4ccc(-c5ccc6ccc7cccnc7c6n5)cc4)cc3)nc12` [ADT-19], the solubility at 1 h (aqueous buffer) was under 0.1 µg/mL and the solubility at 1 h (water) was under 0.1 µg/mL.
Turning to `Nc1ccc(-c2ccc3ccc4ccc(-c5cccc(-c6ccc7ccc8ccc(-c9ccc(N)cc9)nc8c7n6)c5)nc4c3n2)cc1` [ADT-20], the solubility at 1 h by setting is: (aqueous buffer) 7.5 µg/mL (≈ 12.2 µM); (water) under 0.1 µg/mL.
The matching figures for `O=S(=O)(O)c1ccc(-c2ccc3ccc4ccc(-c5cccc(-c6ccc7ccc8ccc(-c9ccc(S(=O)(=O)O)cc9)nc8c7n6)c5)nc4c3n2)cc1` [ADT-21]: 6.3 µg/mL (≈ 8.44 µM) and under 0.1 µg/mL.
